According to patent US20240239752A1, “BICYCLIC HETEROAROMATIC INHIBITORS OF KLK5” (BioCryst Pharmaceuticals, Inc., priority 2021, published 2024):

Target: T1, recombinant human KLK5 (Homo sapiens, UniProt Q9Y337)
T1 construct: purchased Novoprotein or R&D Systems C415 or 1108-SE
T1 sequence (Q9Y337 23-293): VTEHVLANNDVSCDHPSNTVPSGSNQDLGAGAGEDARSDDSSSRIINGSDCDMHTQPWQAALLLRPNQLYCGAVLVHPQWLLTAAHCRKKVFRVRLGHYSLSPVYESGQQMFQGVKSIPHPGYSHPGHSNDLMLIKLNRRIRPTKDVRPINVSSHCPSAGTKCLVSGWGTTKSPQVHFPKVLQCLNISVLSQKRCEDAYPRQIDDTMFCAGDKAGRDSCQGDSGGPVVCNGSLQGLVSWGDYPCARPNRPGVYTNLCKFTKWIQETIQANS
Test: Kallikrein (KLK) 5 enzymatic assay (Boc-VPR-AMC fluorogenic substrate)
Type: biochemical
Details: recombinant human KLK5 0.1 μg/well, Boc-VPR-AMC 100 μM, pH 7.5, room temperature, 1% DMSO; tested a minimum of three times
Excerpt: Kallikrein-5 (KLK5) is a member of the serine protease family of proteolytic enzymes, confirmed to have trypsin-like activity (Michael I P, et al. Biochemical and enzymatic characterization of human kallikrein 5 (hK5), a novel serine protease potentially involved in cancer progression (J. Biol. Chem. 2005 Apr. 15; 280 (15): 14628-35). Boc-VPR-AMC is a fluorogenic peptide substrate composed of the short peptide chain, Valine-Proline-Arginine (VPR) and the fluorophore, 7-amino-4-methylcoumarin (AMC). KLK5 is able to cleave the fluorogenic peptide substrate Boc-VPR-AMC, releasing the AMC fluorophore, which causes a fluorescent emission in proportion with the enzymatic activity of KLK5. The KLK5 enzymatic activity is monitored by measuring fluorescent emission at wavelengths of 380 nm (excitation) and 460 nm (emission).
The IC50 value of compounds against KLK5 (i.e., the concentration of the compound that inhibits 50% of the enzymatic activity) was calculated according to the procedure reported by R&D systems (Recombinant human KLK5, Catalog Number: 1108-SE), with the exception the pH of the assay was modified from 8.0 to 7.5. Specifically, recombinant human KLK5 (Novoprotein Catalog #C415 or R&D systems Catalog #1108-SE) and fluorogenic peptide Boc-VPR-AMC substrate (R&D Catalog #ES011) were each separately diluted in assay buffer (0.1 M NaH2PO4 buffer, pH 7.5). The compounds of the disclosure were dissolved in DMSO at a concentration of 10 mM. A portion of this stock solution was added to the recombinant human KLK5 solution to provide a desired concentration of the compounds and the mixture was incubated at room temperature. The reaction was initiated by the addition of the fluorogenic peptide substrate at room temperature. The final concentration of recombinant human KLK5 was 0.1 μg/well and the final concentration of the fluorogenic substrate was 100 μM (final volume of 100 μL, 1% DMSO). The assays were performed in 96 well F16 Black Maxisorp Plate (Nunc Catalog #475515). Controls included assay buffer alone and enzyme solutions to which DMSO was added. The reaction rates were measured spectrophotometrically by excitation at 380 nm and emission at 460 nm on a Biotek Synergy H1 plate reader.
The reaction rate for enzyme alone was compared to the reaction rate of enzyme in the presence of compound and the percent inhibition was calculated as shown below:
Percent Inhibition=[Rate with inhibitor/Rate without inhibitor)]×100
An IC50 indicates a compound concentration that inhibits 50% of the enzymatic activity. Compounds were tested a minimum of three times.

Row | IC50 | Structure (SMILES)
1 | 1000 to 10000 nM | Nc1nccc2ccc(-c3ccc4nn(C5CC(N)C5)c(COc5ccccc5CC(=O)O)c4c3)cc12 (stereo not shown) [Compound 138b, 2-(2-((2-(3-aminocyclobutyl)-5-(1-aminoisoquinolin-7-yl)-2H-indazol-3-yl)methoxy)phenyl)acetic acid]
2 | > 10000 nM | CCS(=O)(=O)N1CC(n2nc3ccc(-c4ccc5ccnc(N)c5c4)cc3c2COc2ccccc2CC(=O)O)C1 [Compound 133b, 2-(2-((5-(1-aminoisoquinolin-7-yl)-2-(1-(ethylsulfonyl)azetidin-3-yl)-2H-indazol-3-yl)methoxy)phenyl)acetic acid]
3 | < 1000 nM | Nc1nccc2c(-c3ccc4c(c3)c(COc3ccccc3CC(=O)O)nn4C3CCN(CC(=O)O)C3)cccc12 (stereo not shown) [Compound 305b, 2-(2-((5-(1-aminoisoquinolin-5-yl)-1-(1-(carboxymethyl)pyrrolidin-3-yl)-1H-indazol-3-yl)methoxy)phenyl)acetic acid]
4 | < 1000 nM | Nc1nccc2c(-c3ccc4c(c3)[C@H](Oc3cccc(OC(F)(F)F)c3CC(=O)O)CC4)cccc12 [Compound 435b, (R)-2-(2-((6-(1-aminoisoquinolin-5-yl)-2,3-dihydro-1H-inden-1-yl)oxy)-6-(trifluoromethoxy)phenyl)acetic acid]
5 | 1000 to 10000 nM | CCC(=O)N1CC(n2nc3ccc(-c4cccc5c(N)nccc45)cc3c2COc2ccccc2CC(=O)O)C1 [Compound 129b, 2-(2-((5-(1-aminoisoquinolin-5-yl)-2-(1-propionylazetidin-3-yl)-2H-indazol-3-yl)methoxy)phenyl)acetic acid]
6 | 1000 to 10000 nM | Nc1nccc2c(-c3ccc4nn(C5CCC5)c(COc5cc(C(F)(F)F)ccc5CC(=O)O)c4c3)cccc12 [Compound 152b, 2-(2-((5-(1-aminoisoquinolin-5-yl)-2-cyclobutyl-2H-indazol-3-yl)methoxy)-4-(trifluoromethyl)phenyl)acetic acid]
7 | 1000 to 10000 nM | COc1c(-c2ccc3nn(C4CCC4)c(COc4ccccc4CC(=O)O)c3c2)ccnc1C(=N)NO [Compound 23g, 2-(2-((2-cyclobutyl-5-(2-(N-hydroxycarbamimidoyl)-3-methoxypyridin-4-yl)-2H-indazol-3-yl)methoxy)phenyl)acetic acid]
8 | < 1000 nM | N=C(N)c1cccc(-c2ccc3c(c2)c(COc2ccccc2CC(=O)O)nn3C2CCC2)c1 [Compound 28d, 2-(2-((5-(3-carbamimidoylphenyl)-1-cyclobutyl-1H-indazol-3-yl)methoxy)phenyl)acetic acid]
9 | 1000 to 10000 nM | N#Cc1cccc(CC(=O)O)c1O[C@@H]1CCc2ccc(-c3cccc4c(N)nccc34)cc21 [Compound 430b, (R)-2-(2-((6-(1-aminoisoquinolin-5-yl)-2,3-dihydro-1H-inden-1-yl)oxy)-3-cyanophenyl)acetic acid]
10 | < 1000 nM | Nc1nccc2c(-c3ccc4c(c3)c(C#Cc3ccccc3CC(=O)O)cn4C3CCOC3)cccc12 (stereo not shown) [Compound 301f, 2-(2-((5-(1-aminoisoquinolin-5-yl)-1-(tetrahydrofuran-3-yl)-1H-indol-3-yl)ethynyl)phenyl)acetic acid]
11 | 1000 to 10000 nM | COc1ccc(CC(=O)O)c(OCc2c3cc(-c4ccc5ccnc(N)c5c4)ccc3nn2C2CCCCC2)c1 [Compound 16c, 2-(2-((5-(1-aminoisoquinolin-7-yl)-2-cyclohexyl-2H-indazol-3-yl)methoxy)-4-methoxyphenyl)acetic acid]
12 | < 1000 nM | CC(C)n1nc(COc2ccccc2CC(=O)O)c2cc(-c3cccc4c(N)nccc34)ccc21 [Compound 40b, 2-(2-((5-(1-aminoisoquinolin-5-yl)-1-isopropyl-1H-indazol-3-yl)methoxy)phenyl)acetic acid]

The remaining lines, values behind:

Row | Structure (SMILES) | IC50
13 | CC(C)COC(=O)N1CC[C@H](n2nc(COc3ccccc3CC(=O)O)c3cc(-c4ccc5ccnc(N)c5c4)ccc32)C1 [Compound 360c, (S)-2-(2-((5-(1-aminoisoquinolin-7-yl)-1-(1-(isobutoxycarbonyl)pyrrolidin-3-yl)-1H-indazol-3-yl)methoxy)phenyl)acetic acid] | < 1000 nM
14 | CC(C)(C)OC(=O)N1CC(n2nc3ccc(-c4cccc5c(N)nccc45)cc3c2COc2ccccc2CC(=O)O)C1 [Compound 125b, 2-(2-((5-(1-aminoisoquinolin-5-yl)-2-(1-(tert-butoxycarbonyl)azetidin-3-yl)-2H-indazol-3-yl)methoxy)phenyl)acetic acid] | < 1000 nM
15 | COC(=O)N1CCC2(CC1)CC(Oc1ccccc1CC(=O)O)c1cc(-c3ccc4ccnc(N)c4c3)ccc12 (stereo not shown) [Compound 370c, 2-(2-((5-(1-aminoisoquinolin-7-yl)-1′-(methoxycarbonyl)-2,3-dihydrospiro[indene-1,4′-piperidin]-3-yl)oxy)phenyl)acetic acid] | < 1000 nM
16 | CC(C)OC(=O)N1CCC2(CC1)CC(Oc1ccccc1CC(=O)O)c1cc(-c3ccc4ccnc(N)c4c3)ccc12 (stereo not shown) [Compound 374c, 2-(2-((5-(1-aminoisoquinolin-7-yl)-1′-(isopropoxycarbonyl)-2,3-dihydrospiro[indene-1,4′-piperidin]-3-yl)oxy)phenyl)acetic acid] | < 1000 nM
17 | CC(C)(C)OC(=O)NCc1cc(-c2cccc3c(N)nccc23)cc2c(COc3ccccc3CC(=O)O)nn(C3CCCCO3)c12 (stereo not shown) [Compound 278c, 2-(2-((5-(1-aminoisoquinolin-5-yl)-7-(((tert-butoxycarbonyl)amino)methyl)-1-(tetrahydro-2H-pyran-2-yl)-1H-indazol-3-yl)methoxy)phenyl)acetic acid] | 1000 to 10000 nM
18 | CCOC(=O)N1CC[C@H](n2nc(COc3cccc(C4CC4)c3CC(=O)O)c3cc(-c4ccc5ccnc(N)c5c4)ccc32)C1 [Compound 356e, (S)-2-(2-((5-(1-aminoisoquinolin-7-yl)-1-(1-(ethoxycarbonyl)pyrrolidin-3-yl)-1H-indazol-3-yl)methoxy)-6-cyclopropylphenyl)acetic acid] | < 1000 nM
19 | CC(C)n1nc(COc2ccccc2CC(=O)O)c2cc(-c3cccc(-c4nnc[nH]4)c3)ccc21 [Compound 52c, 2-(2-((5-(3-(4H-1,2,4-triazol-3-yl)phenyl)-1-isopropyl-1H-indazol-3-yl)methoxy)phenyl)acetic acid] | > 10000 nM
20 | COC(=O)N1CCC2(CC1)CC(Oc1cc(F)ccc1CC(=O)O)c1cc(-c3ccc4ccnc(N)c4c3)ccc12 (stereo not shown) [Compound 408f, 2-(2-((5-(1-aminoisoquinolin-7-yl)-1′-(methoxycarbonyl)-2,3-dihydrospiro[indene-1,4′-piperidin]-3-yl)oxy)-4-fluorophenyl)acetic acid] | < 1000 nM
21 | CC(C)n1nc(COc2ccccc2CC(=O)O)c2cc(-c3ccnc4c(N)nccc34)ccc21 [Compound 80d, 2-(2-((5-(8-amino-1,7-naphthyridin-4-yl)-1-isopropyl-1H-indazol-3-yl)methoxy)phenyl)acetic acid] | 1000 to 10000 nM
22 | CCOC(=O)Cc1cccc(C#N)c1OCc1nn(C2CCC2)c2ccc(Br)cc12 [Compound 174c, ethyl 2-(2-((5-bromo-1-cyclobutyl-1H-indazol-3-yl)methoxy)-3-cyanophenyl)acetate] | 1000 to 10000 nM
23 | COC(=O)N1CCC2(CC1)CC(Oc1ccccc1CC(=O)O)c1cc(-c3cccc4c(N)nccc34)ccc12 (stereo not shown) [Compound 371b, 2-(2-((5-(1-aminoisoquinolin-5-yl)-1′-(methoxycarbonyl)-2,3-dihydrospiro[indene-1,4′-piperidin]-3-yl)oxy)phenyl)acetic acid] | < 1000 nM
24 | COC(=O)N1CCC2(CC1)CC(Oc1cccc(C)c1CC(=O)O)c1cc(-c3cccc4c(N)nccc34)ccc12 (stereo not shown) [Compound 382b, 2-(2-((5-(1-aminoisoquinolin-5-yl)-1′-(methoxycarbonyl)-2,3-dihydrospiro[indene-1,4′-piperidin]-3-yl)oxy)-6-methylphenyl)acetic acid] | < 1000 nM
25 | CCCn1nc(COc2ccccc2CC(=O)O)c2cc(-c3ccc4ccnc(N)c4c3)ccc21 [Compound 186e, 2-(2-((5-(1-aminoisoquinolin-7-yl)-1-propyl-1H-indazol-3-yl)methoxy)phenyl)acetic acid] | < 1000 nM
